Test results taken from US8357375B2, “Process for the preparation and use of a bivalent vaccine against morphine-heroine addiction” (Instituto Nacional de Psiquiatria Ramon de la Fuente Muniz, priority 2004, dated 2013).

Test system: anti-morphine-heroin serum antibodies
Experiment: competitive immunoenzymatic ELISA for antibody specificity
Format: binding, rat
Details: competitive antigen, nM-μM range

For `CN1CC[C@]23c4c5ccc(O[C@@H]6O[C@H](C(=O)O)[C@@H](O)[C@H](O)[C@H]6O)c4O[C@H]2[C@@H](O)C=C[C@H]3[C@H]1C5` [morphine-3-glucuronide], which “cross-recognition by anti-morphine-heroin serum antibodies” value (from here on “cross-recognition”) is on record?
The value was “cross-recognize”.

With `CN1CC[C@]23c4c5ccc(O)c4O[C@H]2[C@@H](O[C@@H]2O[C@H](C(=O)O)[C@@H](O)[C@H](O)[C@H]2O)C=C[C@H]3[C@H]1C5` [morphine-6-glucuronide] as the molecule, how does the “cross-recognition” value read?
The value was “cross-recognize”.

`O=C1CC[C@@]2(O)[C@H]3Cc4ccc(O)c5c4[C@@]2(CCN3CC2CC2)[C@H]1O5` [naltrexone] was tested. Which “cross-recognition” value did it give?
Its value is “no cross-recognition”.

“β-endorphin (YGGFMTSEKSQTPLVTLFKNAIIKNAYKKGE; Beta-endorphin; UniProt P01189 237-267, looked up) [endogenous opioid peptide produced in the CNS of mammals]” was tested. Which “cross-recognition” value did it give?
Its value is “not able to cross-recognize”.
